# Measured values taken from US20070049564A1 (Wyeth, priority 2005, published 2007).
# Read-outs that look alike come from different tables or passages of the source.
# Columns and labels:
# E. coli GC 2236 = test: MIC, broth microdilution; conditions: Escherichia coli, GC2236, read-out: MINIMAL INHIBITORY CONCENTRATION MIC, pre-incubated in Water
# E. coli GC 2231 = test: MIC, broth microdilution; conditions: Escherichia coli, GC2231, read-out: MINIMAL INHIBITORY CONCENTRATION MIC, pre-incubated in Water
# E. coli GC 2235 = test: MIC, broth microdilution; conditions: Escherichia coli, GC2235, read-out: MINIMAL INHIBITORY CONCENTRATION MIC, pre-incubated in Water
# E. coli GC 2233 = test: MIC, broth microdilution; conditions: Escherichia coli, GC2233, read-out: MINIMAL INHIBITORY CONCENTRATION MIC, pre-incubated in Water
# E. coli GC 2234 = test: MIC, broth microdilution; conditions: Escherichia coli, GC2234, read-out: MINIMAL INHIBITORY CONCENTRATION MIC, pre-incubated in Water
# E. coli GC 2272 = test: MIC, broth microdilution; conditions: Escherichia coli, GC2272, read-out: MINIMAL INHIBITORY CONCENTRATION MIC, pre-incubated in Water
# E. coli GC 4560 = test: MIC, broth microdilution; conditions: Escherichia coli, GC4560, read-out: MINIMAL INHIBITORY CONCENTRATION MIC, pre-incubated in Water
# Method: (§1) Antimicrobial susceptibility testing. The in vitro activities of the antibiotics are determined by the broth microdilution method as recommended by the National Committee for Clinical Laboratory Standards (NCCLS) (1). Mueller-Hinton II broth (MHBII)(BBL Cockeysville, Md.) is the medium employed in the testing procedures. Microtiter plates containing serial dilutions of each antimicrobial agent are inoculated with each organism to yield the appropriate density (10^5 CFU/ml) in a 100 μl final volume. The plates are incubated for 18-22 hours at 35° C. in ambient air.
# Representative compounds were first incubated in mouse serum for an hour prior to the in vitro testing against a panel of selected gram-positive and gram-negative bacteria strains. All compounds were also pre-incubated in water for an hour prior to testing as control. Representative compounds of Formula I were incubated in human serum prior to MIC determination.
# E. coli GC 6465 = test: MIC, broth microdilution; conditions: Escherichia coli, GC6465, read-out: MINIMAL INHIBITORY CONCENTRATION MIC, pre-incubated in Water
# E. coli GC 2203 = test: MIC, broth microdilution; conditions: Escherichia coli, GC2203, read-out: MINIMAL INHIBITORY CONCENTRATION MIC, pre-incubated in Water
# S. typhimurium GC 2172 = test: MIC, broth microdilution; conditions: for MIC: Salmonella enterica, TYPHIMURIUM
# S. aureus GC 1131 = test: MIC, broth microdilution; conditions: Staphylococcus aureus
# Method: as §1
# Representative compounds were first incubated in mouse serum for an hour prior to the in vitro testing against a panel of selected gram-positive and gram-negative bacteria strains. All compounds were also pre-incubated in water for an hour prior to testing as control.
# S. aureus GC 6466 = test: MIC, broth microdilution; conditions: for MIC: Staphylococcus aureus
# S. aureus GC 6467 = test: MIC, broth microdilution; conditions: Staphylococcus aureus
# S. aureus GC 1079 = test: MIC, broth microdilution; conditions: for MIC: Staphylococcus aureus
# S. epidermidis GC 4935 = test: MIC, broth microdilution; conditions: Staphylococcus epidermidis
# E. faecalis GC 4555 = test: MIC, broth microdilution; conditions: for MIC: Enterococcus faecalis
# E. faecalis GC 2267 = test: MIC, broth microdilution; conditions: for MIC: Enterococcus faecalis
# E. faecium GC 4556 = test: MIC, broth microdilution; conditions: for MIC: Enterococcus faecium
# S. pneumoniae* GC 4465 = test: MIC, broth microdilution; conditions: for MIC: Streptococcus pneumoniae
# Staph. = test: Range of MIC for Staph. strains, including MRSA; conditions: Staphylococcus aureus
# [1] = read-out: MINIMAL INHIBITORY CONCENTRATION MIC, pre-incubated in Mouse Serum
# [2] = read-out: MINIMAL INHIBITORY CONCENTRATION MIC, pre-incubated in Water
smiles,measurement,setting,value
"CN(C)c1cc(NC(=O)CN(C(=O)OCOC(=O)CC(C)(C)C)C(C)(C)C)c(O)c2c1C[C@H]1C[C@H]3[C@H](N(C)C)C(O)=C(C(N)=O)C(=O)[C@@]3(O)C(O)=C1C2=O [Example 42, ({[(2-{[(5aR,6aS,7S,10aS)-9-(aminocarbonyl)-4,7-bis(dimethylamino)-1,8,10a,11-tetrahydroxy-10,12-dioxo-5,5a,6,6a,7,10,10a,12-octahydrotetracen-2-yl]amino}-2-oxoethyl)(tert-butyl)amino]carbonyl}oxy)methyl 3,3-dimethylbutanoate]",MIC,E. coli GC 2236,> 64 µg/mL
same,MIC,E. coli GC 2231,> 64 µg/mL
same,MIC,E. coli GC 2235,> 64 µg/mL
same,MIC,E. coli GC 2233,> 64 µg/mL
same,MIC,E. coli GC 2234,> 64 µg/mL
same,MIC,E. coli GC 2272,> 64 µg/mL
same,MIC,E. coli GC 4560,8 µg/mL
same,MIC,E. coli GC 6465,> 64 µg/mL
same,MIC,E. coli GC 2203,> 64 µg/mL
same,MIC,S. typhimurium GC 2172; [1],64 µg/mL
same,MIC,S. typhimurium GC 2172; [2],> 64 µg/mL
same,MINIMAL INHIBITORY CONCENTRATION MIC,S. typhimurium GC 2172; pre-incubated in Mouse Serum,>64 UG/ML
same,MIC,"S. aureus GC 1131; GC1131, read-out: MINIMAL INHIBITORY CONCENTRATION MIC, pre-incubated in Mouse Serum",2 µg/mL
same,MIC,"S. aureus GC 1131; GC1131, read-out: MINIMAL INHIBITORY CONCENTRATION MIC, pre-incubated in Water",4 µg/mL
same,MIC,"S. aureus GC 6466; GC6466, read-out: MINIMAL INHIBITORY CONCENTRATION MIC, pre-incubated in Mouse Serum",2 µg/mL
same,MIC,"S. aureus GC 6466; GC6466, read-out: MINIMAL INHIBITORY CONCENTRATION MIC, pre-incubated in Water",4 µg/mL
same,MINIMAL INHIBITORY CONCENTRATION MIC,S. aureus GC 6466; pre-incubated in Mouse Serum,4 UG/ML
same,MIC,"S. aureus GC 6467; GC6467, read-out: MINIMAL INHIBITORY CONCENTRATION MIC, pre-incubated in Mouse Serum",4 µg/mL
same,MIC,"S. aureus GC 6467; GC6467, read-out: MINIMAL INHIBITORY CONCENTRATION MIC, pre-incubated in Water",8 µg/mL
same,MIC,"S. aureus GC 1079; GC1079, read-out: MINIMAL INHIBITORY CONCENTRATION MIC, pre-incubated in Mouse Serum",2 µg/mL
same,MIC,"S. aureus GC 1079; GC1079, read-out: MINIMAL INHIBITORY CONCENTRATION MIC, pre-incubated in Water",4 µg/mL
same,MINIMAL INHIBITORY CONCENTRATION MIC,S. aureus GC 1079; pre-incubated in Mouse Serum,4 UG/ML
same,MIC,"S. epidermidis GC 4935; GC4935, read-out: MINIMAL INHIBITORY CONCENTRATION MIC, pre-incubated in Mouse Serum",4 µg/mL
same,MIC,"S. epidermidis GC 4935; GC4935, read-out: MINIMAL INHIBITORY CONCENTRATION MIC, pre-incubated in Water",8 µg/mL
same,MIC,"E. faecalis GC 4555; GC4555, read-out: MINIMAL INHIBITORY CONCENTRATION MIC, pre-incubated in Mouse Serum",2 µg/mL
same,MIC,"E. faecalis GC 4555; GC4555, read-out: MINIMAL INHIBITORY CONCENTRATION MIC, pre-incubated in Water",4 µg/mL
same,MINIMAL INHIBITORY CONCENTRATION MIC,E. faecalis GC 4555; pre-incubated in Mouse Serum,4 UG/ML
same,MIC,"E. faecalis GC 2267; GC2267, read-out: MINIMAL INHIBITORY CONCENTRATION MIC, pre-incubated in Mouse Serum",2 µg/mL
same,MIC,"E. faecalis GC 2267; GC2267, read-out: MINIMAL INHIBITORY CONCENTRATION MIC, pre-incubated in Water",4 µg/mL
same,MINIMAL INHIBITORY CONCENTRATION MIC,E. faecalis GC 2267; pre-incubated in Mouse Serum,4 UG/ML
same,MIC,"E. faecium GC 4556; GC4556, read-out: MINIMAL INHIBITORY CONCENTRATION MIC, pre-incubated in Mouse Serum",2 µg/mL
same,MIC,"E. faecium GC 4556; GC4556, read-out: MINIMAL INHIBITORY CONCENTRATION MIC, pre-incubated in Water",8 µg/mL
same,MINIMAL INHIBITORY CONCENTRATION MIC,E. faecium GC 4556; pre-incubated in Mouse Serum,4 UG/ML
same,MIC,S. pneumoniae* GC 4465; [1],2 µg/mL
same,MIC,S. pneumoniae* GC 4465; [2],4 µg/mL
same,MINIMAL INHIBITORY CONCENTRATION MIC,S. pneumoniae* GC 4465; pre-incubated in Mouse Serum,4 UG/ML
same,MIC,"Staph.; MRSA, read-out: Range of MIC, Staph (Mouse Serum)",2 to 4 µg/mL
same,MIC,"Staph.; MRSA, read-out: Range of MIC, Staph (Water)",4 to 8 µg/mL
same,MIC,"Staph.; read-out: Minimum inhibitory concentration (MIC), Staph (Human Serum)",2 to 4 µg/mL
same,MIC,"Staph.; read-out: Minimum inhibitory concentration (MIC), Staph (Water)",4 to 8 µg/mL
